For data set [1] the following is noted: cited from earlier work.
Data set [2] has as its system FOXO3a protein. Kind of data set: Immunoblot analysis of FOXO3a protein levels in SKOV3 cells. The format is cell-based, human. The settings on record: vs FED/MEM control. From the text:
In another embodiment, the subject invention relates to a method for decreasing the fertility of a subject, comprising administering a therapeutically effective amount of a glucose analog to the subject, wherein the glucose analog comprises one or more of (i) 2-deoxyglucose (2DG) or a combination of 2DG with chemical derivatives of 2DG with similarly documented ovarian activity; (ii) D-mannoheptulose; or (iii) 5-thio-D-glucose; and the administering step inhibits ovulation in the female subject. In a further embodiment, the glucose analog elevates the production of FOXO3a. In yet a further embodiment, FOXO3a prevents activation of oocytes during follicle development. In another embodiment, a therapeutically effective amount of at least one glucose analog is co-administered to the subject. In one example, FOXO3a mRNA and protein levels are induced in response to amino acid and glucose_deprivation in human ovarian carcinoma (SKOV3) cells. In order to establish a connection between FOXO3a and glucose deprivation, one example was used in which human ovarian carcinoma (SKOV3) cells were treated with 2-deoxyglucose (2-DOG or 2-DG) followed by mRNA analysis by real-time RT-PCR (FIG. 1) and immunoblot analysis (FIG. 2). […] The fold increases were determined using a ΔΔCT method with cyclophilin A as the internal reference gene for each sample. […]

For data set [3], the system named is Foxo3a mRNA. Kind of data set: Foxo3a mRNA by real-time RT-PCR in SKOV3 cells treated with 2-deoxyglucose. The format is cell-based, human. From the text:
In another embodiment, the subject invention relates to a method for decreasing the fertility of a subject, comprising administering a therapeutically effective amount of a glucose analog to the subject, wherein the glucose analog comprises one or more of (i) 2-deoxyglucose (2DG) or a combination of 2DG with chemical derivatives of 2DG with similarly documented ovarian activity; (ii) D-mannoheptulose; or (iii) 5-thio-D-glucose; and the administering step inhibits ovulation in the female subject. In a further embodiment, the glucose analog elevates the production of FOXO3a. In yet a further embodiment, FOXO3a prevents activation of oocytes during follicle development. In another embodiment, a therapeutically effective amount of at least one glucose analog is co-administered to the subject. In one example, FOXO3a mRNA and protein levels are induced in response to amino acid and glucose_deprivation in human ovarian carcinoma (SKOV3) cells. In order to establish a connection between FOXO3a and glucose deprivation, one example was used in which human ovarian carcinoma (SKOV3) cells were treated with 2-deoxyglucose (2-DOG or 2-DG) followed by mRNA analysis by real-time RT-PCR (FIG. 1) and immunoblot analysis (FIG. 2). 2-DG has been effectively employed as an alternative to glucose (deprivation) depletion. […] The fold increases were determined using a ΔΔCT method with cyclophilin A as the internal reference gene for each sample. […] Control cells (FED/MEM) were given complete media.

Data set [4] concerns type 3a follicles. Kind of data set: Pilot study in mice injected IP daily for two weeks: histological count of follicle types per ovary. The format is in vivo. The conditions noted are these: for Reduction in number of type 3a follicles: two weeks, vs PBS controls. As to the method: (§1) Not to be bound to any particular mechanism, it is believed that in one aspect of the present invention, by administering a therapeutically effective amount of the non-hormonal contraceptive composition to a female subject, cellular signals are induced activating a regulatory factor which blocks maturation of the […] and suppresses ovulation. In one example, a pilot study was conducted in which 5-week-old mice were intraperitoneally (IP) injected daily with 2-DG for two weeks. To determine an effective dose, 100, 300 and 600 mg/kg 2-DG was tested, with 6 animals in each treated group and 6 mice in the control group (0) injected with PBS. Following the two week study, the mice were sacrificed and the ovaries removed for mRNA and histological analyses. […] The contralateral ovary was used for histological analysis of the total numbers of follicle types in the entire ovary. Ovaries were fixed in 10% neutral buffered formalin, embedded in paraffin, then serially sectioned at 8 μm and stained with hematoxylin. Follicles were counted in every fifth section with random start. Follicles were classified following Pedersen and Peters guidelines. Most relevant to the data presented here, type 3a and 3b follicles were classified as having a single layer of granulosa cells surrounding the oocyte, and the two were distinguished from each other by the number of granulosa cells in that single layer. […] Only follicles containing an oocyte with a clearly visible nucleus were scored, to ensure that each follicle was counted only once. It should be noted that type 3a follicles are the first stage of folliculogenesis from the primordial follicle, the dormant stage at which FOXO3a acts as a brake. After follicles were counted in each fifth section, the total number of each type was multiplied by a correction factor of five to estimate total number of follicles in each ovary. The collective data is shown in the bar graph in FIG. 5. […] This is particularly advantageous as it allows lower dosages of one of the analogs or dosages of two or more analogs in therapeutic compositions. […]

In data set [5] the test system is FOXO3a. Kind of data set: Mouse ovarian organ culture, FOXO3a mRNA and protein expression. The format is cell-based.
Data set [6] has as its system Foxo3a mRNA. Kind of data set: Pilot study in mice injected IP daily for two weeks: ovary Foxo3a mRNA by real-time RT-PCR. The format is in vivo. The conditions noted are these: for Foxo3a mRNA levels in ovary, increase: two weeks, 5-week-old mice. As to the method:
as §1

For data set [7] the following is noted: animal metabolic and nutritional studies, human nutritional and cancer studies/clinical trials; cited from earlier work.
For data set [8] the following is noted: women, cited from earlier work.
Setting [9] is: preliminary dose response studies, mice injected for two weeks.

Where two headings read alike, the source gives them in different places.

Here are results for 3 molecules from patent US9248142B2, “Non-hormonal female contraceptive” (University of Florida Research Foundation, Inc., priority 2010, dated 2016).

Take `O=CC[C@@H](O)[C@H](O)[C@H](O)CO` [2-DG, 2-deoxyglucose]: the “Solubility in aqueous solutions” value in data set [1] is “freely soluble”. Also, the Foxo3a protein levels result in data set [2] is recorded as “increased”. In addition, in data set [3] (SKOV3 cells), the “Duration of Foxo3a mRNA induction” value was “maintained out to 24 h”. Besides, the “Foxo3a mRNA induction” value in data set [3] (SKOV3 cells, by 4 h, ΔΔCT vs cyclophilin A) was “approximately 2.5 fold”. Also, the “FOXO3a mRNA and protein expression” value in data set [3] (human ovarian carcinoma cells in culture) and in data set [5] was “specific induction” each time. For the same molecule, the “Reduction in number of type 3a follicles” value in data set [4] (100 mg/kg IP daily) is around 60%; in data set [4] (600 mg/kg IP daily), 32%. Besides, in data set [4] (setting [9]), the “Decrease in maturation of primary follicles” value was 32-60%. Moreover, the results for the “Foxo3a mRNA levels in ovary, increase” value in data set [6] (100 mg/kg IP daily) and in data set [6] (600 mg/kg IP daily) were around 4 fold and around 2.75 fold, respectively. Besides, the “Increase in mRNA synthesis of FOXO3a in the ovary” value in data set [6] (setting [9]) is 2-4 fold. Also, the Side effects result in data set [7] is “no documented side effects”.
For `N[C@H](CO)Cc1c[nH]cn1` [His-OH, histidinol, reference compound], the Foxo3a protein levels result in data set [2] is “increased”.
Take `CC(=O)O[C@]1(C(C)=O)CC[C@H]2[C@@H]3C[C@H](C)C4=CC(=O)CC[C@]4(C)[C@H]3CC[C@@]21C` [depot medroxyprogesterone acetate, medroxyprogesterone acetate]: the “Loss in bone mineral density” value in data set [8] (after 24 months of use, average) is recorded as 5.7%; in data set [8] (between months 12 and 24), 3.2%.
